According to US8343996B2, “Azaquinolinone derivatives and uses thereof” (AstraZeneca AB, priority 2008, dated 2013):
Values joined by “and” are separate entries in the source; they are usually repeats but may differ in a detail not shown here. Equal entries are not always repeated.

These compounds were tested on farnesyl transferase (FTase) (assay: Cytosolic Ras assay for measurement of farnesyl transferase activity (RAS Cell Assay)). Conditions: COS-7 cells, 24 hr treatment in 0.2% DMSO; cytosolic Ras by Western blot, Ras/actin ratio.
Format: cell-based, African green monkey
Description: Ras is a small GTP binding protein whose farnesylation and consequent membrane association can be reduced by inhibition of farnesyl transferase (Appels et al., Oncologist 10:565-578, 2005; Basso et al., J. Lipid Res. 47:15-31, 2006; Tamanoi, Trends Biochem. Sci. 18:349-353, 1993; each of which is incorporated herein by reference). […] Treatment with a compound of the invention reduces the farnesylation and membrane association of Ras, leading to accumulation of Ras in the cytosol of the cells. An assay was developed to monitor FTase activity, based on the amount of Ras present in the cytosolic fraction of COS-7 cells after FTI treatment. On day 0, COS-7 cells were passaged into 6-well plates at a density of 4×10^5 cells/well. Beginning on day 1, cells were treated with a compound of the invention in 0.2% DMSO for 24 hr. On day 2, cells were lysed by passage through a 25 gauge needle 10 times in 100 μl Buffer 1 (50 mM Tris, 140 mM NaCl, 2 mM EDTA, protease inhibitor cocktail, pH 7.4) and lysates were centrifuged at 16,000 g for 30 min to isolate the cytosolic fraction (supernatant). The cytosolic fraction was analyzed by Western blot using anti-Ras antibody and anti-actin antibody for loading control. Results were quantified based on densitometric analysis of Ras signal normalized to actin signal (Ras/actin ratio). Treatment with a compound of the invention increases the amount of Ras in the cytosolic fraction in a dose-dependent manner. Using this method, compounds of the invention were analyzed for their ability to inhibit FTase activity, in that an increase in the Ras/actin ratio indicates inhibition of FTase.

SMILES	IC50
C#Cc1cccc(-c2cc(=O)n(C)c3ncc([C@@](O)(c4ccc(Cl)cc4)c4cncn4C)cc23)c1 [Compound 4a]	300 nM
C#Cc1cccc(-c2cc(=O)n(C)c3ncc([C@](O)(c4ccc(Cl)cc4)c4cncn4C)cc23)c1 [Compound 4b]	0.57 nM and 0.54 nM
COc1cccc(-c2cc(=O)n(C)c3ncc([C@](N)(c4ccc(Cl)cc4)c4cncn4C)cc23)c1 [Compound 5a, 6-(amino(4-chlorophenyl)(1-methyl-1H-imidazol-5-yl)methyl)-4-(3-methoxyphenyl)-1-methyl-1,8-naphthyridin-2(1H)-one]	3.9 nM and 2 nM
COc1cccc(-c2cc(=O)n(C)c3ncc([C@@](N)(c4ccc(Cl)cc4)c4cncn4C)cc23)c1 [Compound 5b, 6-(amino(4-chlorophenyl)(1-methyl-1H-imidazol-5-yl)methyl)-4-(3-methoxyphenyl)-1-methyl-1,8-naphthyridin-2(1H)-one]	300 nM
COc1cccc(-c2cc(=O)n(C)c3ncc([C@](O)(c4ccc(Cl)cc4)c4cncn4C)cc23)c1 [Compound 6a, 6-((4-chlorophenyl)(hydroxy)(1-methyl-1H-imidazol-5-yl)methyl)-4-(3-methoxyphenyl)-1-methyl-1,8-naphthyridin-2(1H)-one]	2.3 nM and 4.2 nM
COc1cccc(-c2cc(=O)n(C)c3ncc([C@@](O)(c4ccc(Cl)cc4)c4cncn4C)cc23)c1 [Compound 6b, 6-((4-chlorophenyl)(hydroxy)(1-methyl-1H-imidazol-5-yl)methyl)-4-(3-methoxyphenyl)-1-methyl-1,8-naphthyridin-2(1H)-one]	190 nM
